Source: US20040121316A1 (priority 2002, published 2004)
Where two headings read alike, the source gives them in different places. Peptide text beside a SMILES is read from it. * marks the point of attachment. MeOSuc = COC(=O)CCC(=O)*; CH2Cl = ClC*

What was measured:
WT HIV-1 [1] = test: microbe, parasite or virus in culture; assay type: cell-based
[2] = system: recombinant HIV-1 10I 48V 54V 82A; test: microbe, parasite or virus in culture; assay type: cell-based; details: Human immunodeficiency virus 1, MT4, read-out: Cell-based assay (MT-4) EC50/nM 48V 54V 82A
[3] = system: recombinant HIV-1 30N 50S 82I 88D; test: microbe, parasite or virus in culture; assay type: cell-based; details: Human immunodeficiency virus 1, MT4, read-out: Cell-based assay (MT-4) EC50/nM 30N 82I 88D
[4] = system: recombinant HIV-1 10I 84V 71V 73S 90M; test: microbe, parasite or virus in culture; assay type: cell-based; details: Human immunodeficiency virus 1, MT4, read-out: Cell-based assay (MT-4) EC50/nM 84V 90M
HIV-1 protease 84V90M = target: T1, HIV-1 protease 84V90M (Human immunodeficiency virus type 1 group M subtype B, UniProt P04585, I572V/L578M); test: Enzymatic assay, IC50 against 84V90M mutant protease; assay type: biochemical
T1 construct: synthetic hexapeptide substrate cleavage by HIV-1 protease

[5] = system: wild-type HIV-1 strain IIIB; test: microbe, parasite or virus in culture; assay type: cell-based; details: Human immunodeficiency virus 1, IIIB
[6] = system: recombinant HIV-1 strains with resistance mutations in the protease gene; test: Cross-Resistance Profile Assay, whole panel; assay type: cell-based
in vivo = details: beagle, dog, po
in vitro = details: human
[7] = target: T2, recombinant HIV-1 protease (Human immunodeficiency virus type 1 group M subtype B, UniProt P04585); test: biochemical; details: read-out: Ki
T2 construct: Enzyme: recombinant HIV-1 protease expressed in E.Coli; purchased Bachem California, Inc. H-9040; host or cells: E. coli

WT HIV protease = target: T3, WT HIV protease (Human immunodeficiency virus type 1 group M subtype B, UniProt P04585); test: biochemical; set-up: species or system HIV-1; details: read-out: WT IC50/nM
T3 construct: synthetic hexapeptide substrate cleavage by HIV-1 protease

84V90M HIV protease = 84V90M HIV protease (Human immunodeficiency virus type 1 group M subtype B, UniProt P04585, I572V/L578M); test: biochemical; set-up: species or system HIV-1; details: Enzymatic assay, 84V90M; read-out: 84V90M IC50/nM
WT HIV-1 [8] = test: microbe, parasite or virus in culture; assay type: cell-based; details: read-out: Cell-based assay (MT-4) EC50/nM WT
HIV-1 84V90M = test: microbe, parasite or virus in culture; assay type: cell-based; details: MT-4, 84V90M; read-out: Cell-based assay (MT-4) EC50/nM 84V90M
HIV-1 30N82I88D = test: microbe, parasite or virus in culture; assay type: cell-based; details: MT-4, 30N82I88D; read-out: Cell-based assay (MT-4) EC50/nM 30N82I88D
HIV-1 48V54V82A = test: microbe, parasite or virus in culture; assay type: cell-based; details: MT-4, 48V54V82A; read-out: Cell-based assay (MT-4) EC50/nM 48V54V82A
HIV-1 46I50V = test: microbe, parasite or virus in culture; assay type: cell-based; details: MT-4, 46I50V; read-out: Cell-based assay (MT-4) EC50/nM 46I50V
[9] = system: MT-2 cells, stimulated and quiescent PBMC
[10] = system: PBMC in human whole blood
[11] = not given; remark: listed apart in the source
[12] = not given; remark: listed apart in the source
[13] = target: porcine liver carboxylesterase (PLCE) (Sus scrofa, UniProt Q29550); assay type: biochemical; details: read-out: IC50 (μM) PLCE
[14] = Human immunodeficiency virus 1, MT4, read-out: Cell-based assay (MT-4) EC50/nM WT
[15] = MT2, 120 h, read-out: Anti-HIV-1 Cell Culture Activity EC50

Chain of porcine liver carboxylesterase (PLCE) (Q29550 whole entry): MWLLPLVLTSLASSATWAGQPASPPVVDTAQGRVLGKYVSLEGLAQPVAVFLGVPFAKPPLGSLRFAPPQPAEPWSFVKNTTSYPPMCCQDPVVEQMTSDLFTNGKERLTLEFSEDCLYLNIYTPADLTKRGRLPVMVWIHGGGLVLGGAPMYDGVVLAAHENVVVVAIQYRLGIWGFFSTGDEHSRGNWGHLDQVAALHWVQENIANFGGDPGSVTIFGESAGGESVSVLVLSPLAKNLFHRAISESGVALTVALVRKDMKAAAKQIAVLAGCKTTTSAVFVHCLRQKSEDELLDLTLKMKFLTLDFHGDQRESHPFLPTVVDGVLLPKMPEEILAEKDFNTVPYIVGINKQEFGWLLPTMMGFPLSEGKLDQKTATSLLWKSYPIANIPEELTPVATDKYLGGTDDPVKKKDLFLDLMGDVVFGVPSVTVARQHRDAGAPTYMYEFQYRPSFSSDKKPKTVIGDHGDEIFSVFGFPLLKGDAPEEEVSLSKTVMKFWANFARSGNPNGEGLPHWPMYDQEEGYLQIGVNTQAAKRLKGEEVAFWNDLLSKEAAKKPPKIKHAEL

O=C1N(Cc2ccccc2)C(Cc2ccccc2)C(O)C(O)C(Cc2ccc(OCP(=O)(OCc3ccccc3)OCc3ccccc3)cc2)N1Cc1ccccc1 (stereo not shown)
EC50 (WT HIV-1 [1]; [14]): 1770 nM | EC50 [2]: > 6000 nM | EC50 [3]: 3140 nM | EC50 [4]: > 6000 nM | IC50 (HIV-1 protease 84V90M): 0.158 µM

O=C1N(Cc2ccccc2)C(Cc2ccccc2)C(O)C(O)C(Cc2ccc(OCP(=O)(O)O)cc2)N1Cc1ccccc1 (stereo not shown)
EC50 (WT HIV-1 [1]; [14]): > 6000 nM | EC50 [4]: > 6000 nM | IC50 (HIV-1 protease 84V90M): 0.21 µM

CC(C)CN(C[C@@H](O)[C@H](Cc1ccccc1)NC(=O)O[C@H]1CCOC1)S(=O)(=O)c1ccc(N)cc1 [Amprenavir, reference compound]
EC50 [5]: < 0.05 µM | EC50 [5, 15]: 0.016 ± 0.0022 µM | Total No. of Resistant Viruses ([6]; {}): 4 | AUC (in vivo): 102 µM·h | half-life (in vivo): 1.7 h | CC50 (in vitro): > 50 µM

Nc1n[nH]c2ccc(CN3C(=O)N(CCCCO)C(Cc4ccccc4)C(O)C(O)C3Cc3ccccc3)cc12 (stereo not shown) [CH2OH]
Ki [7]: 0.017 nM | IC50 (WT HIV protease): 2.8 nM | IC50 (84V90M HIV protease): 31 nM | EC50 (WT HIV-1 [8]): 253 nM | EC50 (HIV-1 84V90M): 1110 nM | EC50 (HIV-1 30N82I88D): 486 nM | EC50 (HIV-1 48V54V82A): 413 nM | EC50 (HIV-1 46I50V): 524 nM

COc1ccc(S(=O)(=O)N(CC(C)C)C[C@@H](O)[C@H](Cc2ccccc2)NC(=O)O[C@H]2CO[C@H]3OCC[C@H]32)cc1 [Example 94-003, reference compound]
EC50 [5]: < 0.05 µM | EC50 [5, 15]: 0.0014 ± 0.0003 µM | Total No. of Resistant Viruses ([6]; {}): 3 | CC50 (in vitro): 5 to 50 µM

CCOC(=O)C(C)NP(=O)(COc1ccc(CC(NC(=O)OC2COC3OCCC23)C(O)CN(CC(C)C)S(=O)(=O)c2ccc(OC)cc2)cc1)Oc1ccccc1 (stereo not shown) [GS-16571]
EC50 (WT HIV-1 [1]; XTT-based cytopathic assay, read-out: EC50 WT HIV-1): 22 nM | Total No. of Resistant Viruses ([6]; resistance = 5-fold and higher change in EC50 of the mutant relative to wild-type, 11 mutant viruses): 0 | intracellular metabolites formed [9]: Metabolite X and GS-8373 | Intracellular Acid Metabolite Concentration [10]: 319 ± 112 µM | Intracellular Concentration, Acid Metabolite [10]: 319 ± 112 µM | Intracellular Concentration, Prodrug [10]: 137 ± 62 µM | Intracellular Prodrug [10]: 137 ± 62 µM | Intracellular Prodrug and Metabolites Concentration, Total [10]: 432 ± 208 µM | Intracellular Prodrug and Metabolites Total [10]: 432 ± 208 µM | Major Intracellular Metabolites [10]: X, GS-8373 | PBMC Extract T1/2: 0.817 h | PBMC Extract T1/2, min: 0.817 h | Dog Plasma T1/2 [11]: 2.1 h | Dog Plasma T1/2, min [11]: 2.1 h | Human Serum T1/2 [12]: 1.83 h | Human Serum T1/2, min [12]: 1.83 h

COC(=O)CCC(=O)N[C@@H](C)C(=O)N[C@@H](C)C(=O)N1CCC[C@H]1C(=O)N[C@@H](C)C(=O)CCl [MeOSuC-Ala-Ala-Pro-Ala-CMK] (MeOSuc-AAPA-CH2Cl)
IC50 [13]: > 1000 µM

COC(=O)CCC(=O)N[C@@H](C)C(=O)N[C@@H](C)C(=O)N1CCC[C@H]1C(=O)N[C@H](C(=O)CCl)C(C)C [MeOSuc-Ala-Ala-Pro-Val-CMK] (MeOSuc-AAPV-CH2Cl)
IC50 [13]: > 1000 µM

Cc1c(O)cccc1C(=O)N[C@@H](CSc1ccccc1)[C@H](O)CN1C[C@H]2CCCC[C@H]2C[C@H]1C(=O)NC(C)(C)C [Nelfinavir]
EC50 [5]: < 0.05 µM | Total No. of Resistant Viruses ([6]; {}): 9 | distribution between cytosol and membrane fractions (quiescent PBMC): present only in the membrane fractions | AUC (in vivo): 33 µM·h | half-life (in vivo): 3 h
